Biological target: T1, recombinant human SAE enzyme (Homo sapiens, UniProt Q9UBT2)
T1 sequence (Q9UBT2 1-640): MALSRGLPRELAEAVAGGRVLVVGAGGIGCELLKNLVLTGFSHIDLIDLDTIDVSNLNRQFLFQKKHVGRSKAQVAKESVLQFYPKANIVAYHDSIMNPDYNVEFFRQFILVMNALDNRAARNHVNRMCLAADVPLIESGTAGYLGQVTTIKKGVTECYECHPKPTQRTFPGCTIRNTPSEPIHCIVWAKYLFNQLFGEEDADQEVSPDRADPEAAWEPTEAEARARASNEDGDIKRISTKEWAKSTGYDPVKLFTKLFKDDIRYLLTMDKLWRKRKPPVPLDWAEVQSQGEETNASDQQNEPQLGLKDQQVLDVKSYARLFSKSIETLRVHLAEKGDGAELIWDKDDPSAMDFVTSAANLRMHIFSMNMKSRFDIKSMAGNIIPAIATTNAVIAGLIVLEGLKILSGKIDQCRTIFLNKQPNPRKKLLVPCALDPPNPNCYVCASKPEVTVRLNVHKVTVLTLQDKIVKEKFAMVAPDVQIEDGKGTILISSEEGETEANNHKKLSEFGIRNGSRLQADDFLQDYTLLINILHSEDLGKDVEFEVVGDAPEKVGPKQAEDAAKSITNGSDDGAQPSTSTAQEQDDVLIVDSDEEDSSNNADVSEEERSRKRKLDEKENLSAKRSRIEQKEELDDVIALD
T1 sequence (Q9UBE0 1-346 partner): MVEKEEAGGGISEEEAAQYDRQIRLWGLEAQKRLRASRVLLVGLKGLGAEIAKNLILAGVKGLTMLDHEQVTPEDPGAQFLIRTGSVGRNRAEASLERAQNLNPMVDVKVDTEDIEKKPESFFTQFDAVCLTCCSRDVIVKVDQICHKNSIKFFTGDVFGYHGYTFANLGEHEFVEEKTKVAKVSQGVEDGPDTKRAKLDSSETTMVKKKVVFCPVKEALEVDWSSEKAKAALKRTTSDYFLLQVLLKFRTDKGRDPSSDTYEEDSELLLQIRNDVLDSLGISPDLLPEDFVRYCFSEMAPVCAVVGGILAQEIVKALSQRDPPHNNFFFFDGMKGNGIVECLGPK
Assay: SAE HTRF Enzyme Assay
Format: biochemical
Settings: for IC50: class symbols A-C; for inhibition at 0.111 µM: compound concentration 0.111 μM, read-out: Percent Inhibition
How it was run: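 HTRF signal from Eu-anti-Flag/APC-anti-GST pairs reports Sumo-Flag loaded onto Ubc9-GST by 0.11 nM SAE. Reaction: 0.5 μM ATP, 0.125 μM Sumo-Flag, 0.01 μM Ubc9-GST, 5 mM MgCl2, pH 7.5, 105 min, 24° C. Single-concentration % inhibition or IC50 reported.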

Cc1cc(Cn2ccc(C(=O)c3cncnc3N[C@@H]3C[C@H](COS(N)(=O)=O)[C@@H](O)C3)n2)ccc1F [Compound I-14, {(1R,2S,4R)-4-[(5-{[1-(4-fluoro-3-methylbenzyl)-1H-pyrazol-3-yl]carbonyl}pyrimidin-4-yl)amino]-2-hydroxycyclopentyl}methyl sulfamate]
IC50: < 0.01 µM | inhibition at 0.111 µM: 98%

NS(=O)(=O)OC[C@H]1C[C@@H](Nc2ncncc2C(=O)c2ccn(Cc3cccc(Br)c3)n2)[C@@H](F)[C@@H]1O [Compound I-15, {(1R,2R,3R,4R)-4-[(5-{[1-(3-bromobenzyl)-1H-pyrazol-3-yl]carbonyl}pyrimidin-4-yl)amino]-3-fluoro-2-hydroxycyclopentyl}methyl sulfamate]
IC50: < 0.01 µM | inhibition at 0.111 µM: 98%

NS(=O)(=O)OC[C@H]1C[C@@H](Nc2ncncc2C(=O)c2ccn(Cc3c(F)ccc(F)c3F)n2)C[C@@H]1O [Compound I-16, {(1R,2S,4R)-2-hydroxy-4-[(5-{[1-(2,3,6-trifluorobenzyl)-1H-pyrazol-3-yl]carbonyl}pyrimidin-4-yl)amino]cyclopentyl}methyl sulfamate]
IC50: < 0.01 µM | inhibition at 0.111 µM: 98%

NS(=O)(=O)OC[C@H]1C[C@@H](Nc2ncncc2C(=O)c2ccn(Cc3cc4ccccc4o3)n2)C[C@@H]1O [Compound I-17, {(1R,2S,4R)-4-[(5-{[1-(1-benzofuran-2-ylmethyl)-1H-pyrazol-3-yl]carbonyl}pyrimidin-4-yl)amino]-2-hydroxycyclopentyl}methyl sulfamate]
IC50: < 0.01 µM | inhibition at 0.111 µM: 99%

NS(=O)(=O)OC[C@H]1C[C@@H](Nc2ccncc2C(=O)c2ccn(Cc3cccc(OC(F)(F)F)c3)n2)C[C@@H]1O [Compound I-18, [(1R,2S,4R)-2-hydroxy-4-{[3({1-[3-(trifluoromethoxy)benzyl]-1H-pyrazol-3-yl}carbonyl)pyridin-4-yl]amino}cyclopentyl]methyl sulfamate]
IC50: < 0.01 µM | inhibition at 0.111 µM: 96%

NS(=O)(=O)OC[C@H]1C[C@@H](Nc2ncncc2C(=O)c2ccn(CC(=O)N3CCCC3)n2)[C@@H](F)[C@@H]1O [Compound I-19, [(1R,2R,3R,4R)-3-Fluoro-2-hydroxy-4-{[5-({1-[2-oxo-2-(pyrrolidin-1-yl)ethyl]-1H-pyrazol-3-yl}carbonyl)pyrimidin-4-yl]amino}cyclopentyl]methyl sulfamate]
IC50: 0.1 to 1 µM | inhibition at 0.111 µM: 20%

NS(=O)(=O)OC[C@H]1C[C@@H](Nc2ncncc2C(=O)c2ccn(Cc3cccc(OC(F)(F)F)c3)n2)C[C@@H]1O [Compound I-20, [(1R,2S,4R)-2-hydroxy-4-{[5-({1-[3-(trifluoromethoxy)benzyl]-1H-pyrazol-3-yl}carbonyl)pyrimidin-4-yl]amino}cyclopentyl]methyl sulfamate]
IC50: < 0.01 µM | inhibition at 0.111 µM: 96%

NS(=O)(=O)OC[C@H]1C[C@@H](Nc2ncncc2C(=O)c2ccn(Cc3ccc(F)c(C(F)(F)F)c3)c2)C[C@@H]1O [Compound I-21, [(1R,2S,4R)-4-{[5-({1-[4-fluoro-3-(trifluoromethyl)benzyl]-1H-pyrrol-3-yl}carbonyl)pyrimidin-4-yl]amino}-2-hydroxycyclopentyl]methyl sulfamate]
IC50: < 0.01 µM | inhibition at 0.111 µM: 99%

Cc1cccc(Cn2ccc(C(=O)c3cncnc3N[C@@H]3C[C@H](COS(N)(=O)=O)[C@@H](O)C3)n2)c1F [Compound I-22, {(1R,2S,4R)-4-[(5-{[1-(2-fluoro-3-methylbenzyl)-1H-pyrazol-3-yl]carbonyl}pyrimidin-4-yl)amino]-2-hydroxycyclopentyl}methyl sulfamate]
IC50: < 0.01 µM | inhibition at 0.111 µM: 100%

NS(=O)(=O)OC[C@H]1C[C@@H](Nc2ncncc2C(=O)c2ccn(Cc3cccc(OC(F)(F)F)c3)n2)[C@@H](F)[C@@H]1O [Compound I-23, [(1R,2R,3R,4R)-3-Fluoro-2-hydroxy-4-{[5-({1-[3-(trifluoromethoxy)benzyl]-1H-pyrazol-3-yl}carbonyl)pyrimidin-4-yl]amino}cyclopentyl]methyl sulfamate]
IC50: < 0.01 µM | inhibition at 0.111 µM: 98%

NS(=O)(=O)OC[C@H]1C[C@@H](Nc2ncncc2C(=O)c2ccn(Cc3ccc(Br)o3)c2)[C@@H](F)[C@@H]1O [Compound I-24, [(1R,2R,3R,4R)-4-{[5-({1-[(5-Bromo-2-furyl)methyl]-1H-pyrrol-3-yl}carbonyl)pyrimidin-4-yl]amino}-3-fluoro-2-hydroxycyclopentyl]methyl sulfamate]
IC50: < 0.01 µM | inhibition at 0.111 µM: 100%

N#Cc1cccc(Cn2ccc(C(=O)c3cncnc3N[C@@H]3C[C@H](COS(N)(=O)=O)[C@@H](O)[C@H]3O)n2)c1 [Compound I-25, {(1R,2R,3S,4R)-4-[(5-{[1-(3-cyanobenzyl)-1H-pyrazol-3-yl]carbonyl}pyrimidin-4-yl)amino]-2,3-dihydroxycyclopentyl}methyl sulfamate]
IC50: < 0.01 µM | inhibition at 0.111 µM: 93%

CC(C)(C)C#CCn1ccc(C(=O)c2cncnc2N[C@@H]2C[C@H](COS(N)(=O)=O)[C@@H](O)[C@@H]2F)c1 [Compound I-26, {(1R,2R,3R,4R)-4-[(5-{[1-(4,4-dimethylpent-2-yn-1-yl)-1H-pyrrol-3-yl]carbonyl}pyrimidin-4-yl)amino]-3-fluoro-2-hydroxycyclopentyl}methyl sulfamate]
IC50: 0.01 to 0.1 µM | inhibition at 0.111 µM: 90%

NS(=O)(=O)OC[C@H]1C[C@@H](Nc2ncncc2C(=O)c2ccn(CC#CC3(O)CCOCC3)n2)C[C@@H]1O [Compound I-27, [(1R,2S,4R)-2-hydroxy-4-{[5-({1-[3-(4-hydroxytetrahydro-2H-pyran-4-yl)prop-2-yn-1-yl]-1H-pyrazol-3-yl}carbonyl)pyrimidin-4-yl]amino}cyclopentyl]methyl sulfamate]
IC50: 0.1 to 1 µM | inhibition at 0.111 µM: 9%

CCOCCn1ccc(C(=O)c2cncnc2N[C@@H]2C[C@H](COS(N)(=O)=O)[C@@H](O)[C@H]2O)n1 [Compound I-28, {(1R,2R,3S,4R)-4-[(5-{[1-(2-ethoxyethyl)-1H-pyrazol-3-yl]carbonyl}pyrimidin-4-yl)amino]-2,3-dihydroxycyclopentyl}methyl sulfamate]
IC50: 0.01 to 0.1 µM | inhibition at 0.111 µM: 78%

NS(=O)(=O)OC[C@H]1C[C@@H](Nc2ncncc2C(=O)c2ccn(Cc3cncc(Br)c3)n2)C[C@@H]1O [Compound I-29, [(1R,2S,4R)-4-{[5-({1-[(5-bromopridin-3-yl)methyl]-1H-pyrazol-3-yl}carbonyl)pyrimidin-4-yl]amino}-2-hydroxycyclopentyl]methyl sulfamate]
IC50: 0.01 to 0.1 µM | inhibition at 0.111 µM: 94%

NS(=O)(=O)OC[C@H]1C[C@@H](Nc2ncncc2C(=O)c2ccn(CC3CC3)n2)[C@H](O)[C@@H]1O [Compound I-30, {(1R,2R,3S,4R)-4-[(5-{[1-(cyclopropylmethyl)-1H-pyrazol-3-yl]carbonyl}pyrimidin-4-yl)amino]-2,3-dihydroxycyclopentyl}methyl sulfamate]
IC50: 0.01 to 0.1 µM | inhibition at 0.111 µM: 66%

Cc1cc(C(=O)c2cncnc2N[C@@H]2C[C@H](COS(N)(=O)=O)[C@@H](O)[C@H]2O)nn1Cc1ccccc1 [Compound I-31, [(1R,2R,3S,4R)-4-({5-[(1-benzyl-5-methyl-1H-pyrazol-3-yl)carbonyl]pyrimidin-4-yl}amino)-2,3-dihydroxycyclopentyl]methyl sulfamate]
IC50: < 0.01 µM | inhibition at 0.111 µM: 94%

Cc1ccc(F)c(Cn2ccc(C(=O)c3cncnc3N[C@@H]3C[C@H](COS(N)(=O)=O)[C@@H](O)C3)n2)c1 [Compound I-32, {(1R,2S,4R)-4-[(5-{[1-(2-fluoro-5-methylbenzyl)-1H-pyrazol-3-yl]carbonyl}pyrimidin-4-yl)amino]-2-hydroxycyclopentyl}methyl sulfamate]
IC50: < 0.01 µM | inhibition at 0.111 µM: 98%

NS(=O)(=O)OC[C@H]1C[C@@H](Nc2ncncc2C(=O)c2ccn(CCc3c[nH]c4ccccc34)n2)[C@H](O)[C@@H]1O [Compound I-33, [(1R,2R,3S,4R)-2,3-dihydroxy-4-{[5-({1-[2-(1H-indol-3-yl)ethyl]-1H-pyrazol-3-yl}carbonyl)pyrimidin-4-yl]amino}cyclopentyl]methyl sulfamate]
IC50: < 0.01 µM | inhibition at 0.111 µM: 98%

Source: US9695154B2, “Heteroaryl inhibitors of sumo activating enzyme” (MILLENNIUM PHARMACEUTICALS, INC., priority 2013, dated 2017)
